From ChEMBL document CHEMBL5244247, “Natural and synthetic coumarins as antileishmanial agents: A review” (Eur J Med Chem, 2020)
≈ marks a conversion by molar mass, not a printed value. Where “and” joins values, the source holds several entries; their conditions need not be identical. Equal values may be shown once.

How the values were obtained:
Leishmania major [1] = assay: Antileishmanial activity against promastigote form of Leishmania major assessed as inhibition incubated for 72 hrs by MTT assay; type: functional, organism-based
Peritoneal macrophage = assay: Cytotoxicity against mouse peritoneal macrophage; type: functional, cell-based
Leishmania infantum [2] = assay: Antileishmanial activity against amastigote form of Leishmania infantum; type: functional, organism-based
Leishmania major [3] = assay: Antileishmanial activity against amastigote form of Leishmania major; type: functional, organism-based
Leishmania major [4] = assay: Antileishmanial activity against promastigote form of Leishmania major assessed as inhibition at 100 uM incubated for 72 hrs by MTT assay relative to control; type: functional
Leishmania amazonensis [5] = assay: Antileishmanial activity against amastigote form of Leishmania amazonensis assessed as parasite growth inhibition; type: functional, organism-based
Leishmania amazonensis [6] = assay: Antileishmanial activity against promastigote form of Leishmania amazonensis assessed as parasite growth inhibition incubated for 72 hrs by neubauer counting chamber analysis; type: functional, organism-based
Leishmania major [7] = assay: Antileishmanial activity against promastigote form of Leishmania major assessed as inhibition incubated for 48 hrs by MTT assay; type: functional, organism-based
Leishmania amazonensis [8] = assay: Antileishmanial activity against promastigote form of Leishmania amazonensis assessed as parasite growth inhibition incubated for 72 hrs by regression analysis; type: functional, organism-based
[9] = Selectivity index, ratio of CC50 for cytotoxicity against mouse J774G8 cells to IC50 for antileishmanial activity against intracellular Leishmania amazonensis MHOM/BR/75/Josefa amastigotes infected in BALB/c mouse peritoneal macrophages; type: toxicity, cell-based; settings: read-out: Ratio CC50/IC50
Leishmania braziliensis [10] = assay: Antileishmanial activity against promastigote form of Leishmania braziliensis; type: functional, organism-based
Leishmania amazonensis [11] = assay: Antileishmanial activity against amastigote form of Leishmania amazonensis assessed as parasite growth inhibition incubated for 72 hrs by regression analysis; type: functional, organism-based
Leishmania amazonensis [12] = assay: Antileishmanial activity against intracellular Leishmania amazonensis MHOM/BR/75/Josefa amastigotes infected in BALB/c mouse peritoneal macrophages assessed as parasite growth inhibition incubated for 24 hrs by regression analysis; type: functional, organism-based; settings: Peritoneal macrophage
Leishmania braziliensis [13] = assay: Antileishmanial activity against amastigote form of Leishmania braziliensis; type: functional
Leishmania panamensis [14] = assay: Antileishmanial activity against intracellular Leishmania panamensis amastigotes infected in human U-937 cells assessed as inhibition incubated for 72 hrs by flow cytometry; type: functional, organism-based; settings: U-937, 72 h
Leishmania panamensis [15] = assay: Antileishmanial activity against intracellular Leishmania panamensis amastigotes infected in human U-937 cells assessed as inhibition at 20 ug/mL incubated for 72 hrs by flow cytometry relative to control; type: functional
Leishmania donovani [16] = assay: Antileishmanial activity against amastigote form of Leishmania donovani at 50 uM assessed as inhibition of parasite growth relative to control; type: functional
Leishmania donovani [17] = assay: Antileishmanial activity against amastigote form of Leishmania donovani; type: functional, organism-based
Leishmania amazonensis [18] = assay: Antileishmanial activity against promastigote form of Leishmania amazonensis assessed as inhibition of parasite growth at 100 uM incubated for 72 hrs by neubauer counting chamber analysis relative to control; type: functional
Leishmania infantum [19] = assay: Antileishmanial activity against promastigote form of Leishmania infantum; type: functional, organism-based
Leishmania amazonensis [20] = assay: Antileishmanial activity against Leishmania amazonensis infected in BALB/c mouse assessed as reduction in parasite load at 10 mg/kg, sc administered for 14 days relative to control; type: functional; set-up: scale not given: the % may be the effect or the level left
Leishmania amazonensis [21] = assay: Antileishmanial activity against promastigote form of Leishmania amazonensis; type: functional, organism-based
Leishmania major [22] = assay: Antileishmanial activity against promastigote form of Leishmania major assessed as inhibition of parasite growth by MTT colorimetric cell viability assay; type: functional, organism-based
Leishmania donovani [23] = assay: Antileishmanial activity against promastigote form of Leishmania donovani; type: functional, organism-based
Leishmania mexicana = assay: Antileishmanial activity against promastigote form of Leishmania mexicana; type: functional, organism-based
Leishmania chagasi = assay: Antileishmanial activity against promastigote form of Leishmania chagasi; type: functional, organism-based
Leishmania major [24] = assay: Antileishmanial activity against promastigote form of Leishmania major; type: functional, organism-based
Leishmania amazonensis [25] = assay: Antileishmanial activity against promastigote form of Leishmania amazonensis assessed as inhibition of parasite growth at 200 uM incubated for 72 hrs by neubauer counting chamber analysis relative to control; type: functional
Leishmania major [26] = assay: Antileishmanial activity against promastigote form of Leishmania major assessed as inhibition at 0.1 uM incubated for 72 hrs by MTT assay relative to control; type: functional

O=c1oc2ccccc2cc1-c1nnc2n1N=C(c1ccc(Cl)cc1)CS2
IC50 (Leishmania major [1]): 2.86 µM

CC1=CC[C@@H]2C(C)(C)[C@H](O)CC[C@@]2(C)[C@@H]1COc1ccc2ccc(=O)oc2c1 [FESELOL]
IC50 (Peritoneal macrophage): 8 µM | IC50 (Leishmania infantum [2]): 6.8 µM

COc1ccc2ccc(=O)oc2c1CC=C(C)C [OSTHOLE]
IC50 (Leishmania major [3]): 14.9 µg/mL (≈ 61.2 µM)

O=c1oc2ccccc2cc1-c1nnc2n1N=C(c1ccc(Cl)c(Cl)c1)CS2
IC50 (Leishmania major [1]): 0.89 µM

C[C@@H]1[C@H](O)[C@@H](C)/C=C/C=C/C=C/C=C/C=C/C=C/C=C/[C@H](O[C@@H]2O[C@H](C)[C@@H](O)[C@H](N)[C@@H]2O)C[C@@H]2O[C@](O)(C[C@@H](O)C[C@@H](O)[C@H](O)CC[C@@H](O)C[C@@H](O)CC(=O)O[C@H]1C)C[C@H](O)[C@H]2C(=O)O [AMPHOTERICIN B]
inhibition at 100 µM (Leishmania major [4]): 79.8%

CC(C)=CCOc1ccc2c(-c3ccccc3)cc(=O)oc2c1
IC50 (Leishmania amazonensis [5]): 58.1 µM | IC50 (Leishmania amazonensis [6]): 21.4 µM

O=c1oc2ccc(/N=C/c3ccco3)cc2cc1-c1ccc2c(c1)OCO2
IC50 (Leishmania major [7]): 223 µM

CCC(C)C(=O)c1c(O)c(CC=C(C)C)c(O)c2c(-c3ccccc3)cc(=O)oc12 (stereo not drawn)
IC50 (Leishmania amazonensis [8]): 3 µg/mL and 7.4 µM | selectivity ratio [9]: 4.4 | LD50 (Leishmania braziliensis [10]): 23.2 µg/mL and 60 µg/mL | IC50 (Leishmania amazonensis [11]): 0.88 µg/mL (≈ 2.16 µM) | IC50 (Leishmania amazonensis [12]): 14.3 µM | LD50 (Leishmania braziliensis [13]): 22 µg/mL | LC50 (Leishmania braziliensis [13]; Leishmania braziliensis, read-out: LD50 (the source's name)): 29 µg/mL (≈ 71.3 µM)

Cc1cc(=O)oc2cc(OCCCCOc3cc(Cl)ccc3Oc3ccc(Cl)cc3Cl)ccc12
IC50 (Leishmania panamensis [14]): 53.1 µM | inhibition at 20 µg/mL (Leishmania panamensis [15]): 57.1%

N#C/C(=N\Nc1ccccc1)C1=COC(c2cc3ccccc3oc2=O)=CC1C#N (stereo not drawn)
inhibition at 50 µM (Leishmania donovani [16]): 92% | IC50 (Leishmania donovani [17]): 14.2 µM

COC(=O)C1=C(N)Oc2cc(O)c3c(C)cc(=O)oc3c2C1c1ccc([N+](=O)[O-])cc1 (stereo not drawn)
IC50 (Leishmania amazonensis [5]): 33.1 µM

COc1cc(OC)c2ccc(=O)oc2c1OC
inhibition at 100 µM (Leishmania amazonensis [18]): 91% | IC50 (Leishmania amazonensis [6]): 57.7 µM

C=CC(C)(C)c1cc2cc3c(cc2oc1=O)OC(C)(C)[C@@H](O)C3
IC50 (Leishmania infantum [19]): 27.5 µM | Activity (Leishmania amazonensis [20]; time 14 day): 95.6% | IC50 (Leishmania braziliensis [10]; Leishmania braziliensis): 32.1 µM | IC50 (Leishmania amazonensis [21]): 35.8 µM

C/C(=C\COc1cc(O)cc2oc(=O)ccc12)C/C=C/C(C)(C)OO
IC50 (Leishmania major [22]): 26.2 µM

Cc1cc(=O)oc2cc(OCCCOc3cc(Cl)ccc3Oc3ccc(Cl)cc3Cl)ccc12
inhibition at 20 µg/mL (Leishmania panamensis [15]): 34%

COc1cc(O[C@@H]2O[C@H](CO)[C@@H](O)[C@H](O)[C@H]2O)c2c(-c3ccc(O)c(O)c3)cc(=O)oc2c1
IC50 (Leishmania donovani [17]): > 90 µM | IC50 (Leishmania donovani [23]): 28.9 µM

N=C(N)c1ccc(OCCCCCOc2ccc(C(=N)N)cc2)cc1 [PENTAMIDINE]
EC50 (Leishmania mexicana): 1.75 µg/mL (≈ 5.14 µM) | EC50 (Leishmania chagasi): 5.2 µg/mL (≈ 15.3 µM) | EC50 (Leishmania donovani [23]): 1.41 µg/mL (≈ 4.14 µM) | EC50 (Leishmania major [24]): 1.46 µg/mL (≈ 4.29 µM)

CCC(C)C(=O)c1c(O)c(CCC(C)C)c(O)c2c1OC(=O)CC2c1ccccc1 (stereo not drawn)
IC50 (Leishmania amazonensis [8]): 0.9 µM | selectivity ratio [9]: 142 | IC50 (Leishmania amazonensis [12]): 0.6 µM

Cc1cccc2cc(C(c3c(O)c4ccccc4oc3=O)N3CCCCC3)c(Cl)nc12 (stereo not drawn)
IC50 (Leishmania donovani [23]): 9.9 µM

C=C1C=C[C@H]2C(C)(C)C(=O)CC[C@]2(C)[C@@H]1COc1ccc2ccc(=O)oc2c1
IC50 (Leishmania major [24]): 43.8 µg/mL (≈ 116 µM)

MEGLUMINE ANTIMONATE
Activity (Leishmania amazonensis [20]; time 14.0 day): 95.2%

C=C(C)C(CC/C(C)=C/COc1cc(O)cc2oc(=O)ccc12)OO (stereo not drawn)
IC50 (Leishmania major [22]): 20.2 µM

COc1cc2ccc(=O)oc2c2c1OC(C)(C)C=C2
inhibition at 200 µM (Leishmania amazonensis [25]): 100% | IC50 (Leishmania amazonensis [6]): 70 µM

CC1CC(CC(C)(O)C(O)COc2ccc3ccc(=O)oc3c2O)OC1=O (stereo not drawn)
IC50 (Leishmania major [22]): > 100 µM

Cc1cccc(-n2c(-c3cc4ccccc4oc3=O)cs/c2=N/NC(=O)c2cc3ccccc3oc2=O)c1
inhibition at 0.1 µM (Leishmania major [26]): 53.7% | inhibition at 100 µM (Leishmania major [4]): 62.7%

O=c1cc(-c2ccccc2)c2c(O)cc(O)cc2o1
IC50 (Leishmania amazonensis [8]): 60.2 µM
